Experimental data as given in patent US10106542B2, “Substituted 6,7-dihydropyrazolo[1,5-a]pyrazines as negative allosteric modulators of mGluR2 receptors” (Janssen Pharmaceutica NV, priority 2013, dated 2018).
Like-named read-outs stand apart in the source and are kept apart here.

Tested on: Wiga rats
Assay: Reserpine interaction test in rats
Assay type: in vivo, rat
Details: Rattus norvegicus, Wiga rats
Protocol: 4) Reserpine Interaction Test in Rats
It was investigated to what extent the mydriatic action of test compounds was sufficient to counteract the miosis induced by the monoamines-depleting agent reserpine (10 mg/kg; SC) in Wiga rats.
The effects are illustrated in FIG. 3. […] The reference mGlu2 NAMs RO-4995819 (40 mg/kg, p.o.), RO-4491533 (40 mg/kg, p.o.; 10 mg/kg, s.c.) and [CAS 579473-69-1]

Work on `Cc1cc(-c2cnn3c2C(=O)N(c2ccc(C(F)(F)F)cc2)C[C@@H]3C)ccn1` [compound 1, (7S)-7-Methyl-3-(2-methylpyridin-4-yl)-5-[4-(trifluoromethyl)phenyl]-6,7-dihydropyrazolo[1,5-a]pyrazin-4(5H)-one] yielded an ED50 (p.o., -1 h, reserpine 10 mg/kg SC, read-out: ED50 reversal of reserpine-induced miosis) of 9.4 mg/kg, an ED50 (p.o., -1 h, reserpine 10 mg/kg SC, read-out: ED50 reversal of reserpine-induced ptosis) of 0.78 mg/kg and an ED50 (p.o., -1 h, reserpine 10 mg/kg SC, read-out: ED50 reversal of reserpine-induced sedation) of 7.1 mg/kg. It also gave an ED50 (p.o., -4 h, reserpine 10 mg/kg SC, read-out: ED50 reversal of reserpine-induced miosis) of 9.4 mg/kg, an ED50 (p.o., -4 h, reserpine 10 mg/kg SC, read-out: ED50 reversal of reserpine-induced ptosis) of 0.78 mg/kg and an ED50 (p.o., -4 h, reserpine 10 mg/kg SC, read-out: ED50 reversal of reserpine-induced sedation) of 14 mg/kg. For the same compound, the ED50 (po, -1 h, read-out: ED50 mydriasis before the reserpine challenge) was 1.55 mg/kg, the ED50 (po, -4 h, read-out: ED50 mydriasis before the reserpine challenge) was 0.89 mg/kg and the ED50 (po, Time 60, reserpine 10 mg/kg SC, read-out: ED50, reversal of reserpine-induced ptosis) was 0.67 mg/kg. The ED50 (po, Time 240, reserpine 10 mg/kg SC, read-out: ED50, reversal of reserpine-induced ptosis) was 0.89 mg/kg, the ED50 (sc, Time 60, reserpine 10 mg/kg SC, read-out: ED50, reversal of reserpine-induced ptosis) was 1.01 mg/kg and the ED50 (sc, read-out: ED50 mydriasis before the reserpine challenge) was 1.78 mg/kg. The ED50 (sc, reserpine 10 mg/kg SC, read-out: ED50 reversal of reserpine-induced miosis) was 4.1 mg/kg, the ED50 (sc, reserpine 10 mg/kg SC, read-out: ED50 reversal of reserpine-induced ptosis) was 1.03 mg/kg and the ED50 (sc, reserpine 10 mg/kg SC, read-out: ED50 reversal of reserpine-induced sedation) was 9.4 mg/kg.
